US20130225545A1, “PORPHYRIN TREATMENT OF NEURODEGENERATIVE DISEASES” (priority 2010, published 2013)
“Also recorded” adds a separate entry of the source.

Key:
[1] = Plasma concentration in C57BL/6 mice after a single dose (15 mg/kg) by the i.p. or p.o. route; type: in vivo; conditions: for plasma concentration after i.p. administration / plasma concentration after p.o. administration: C57BL/6 mice; for plasma concentration after i.p. administration: single dose 15 mg/kg i.p.; for plasma concentration after p.o. administration: single dose 15 mg/kg p.o.; for bioavailability / pharmacokinetic properties, overall assessment: mice, i.p. and p.o., summary in words
Source text: (§1) Points represent mean±S.E.M. Each point is the average of 3-4 animals.
(§2) Points represent mean+S.E.M. Bars represent mean+S.E.M. n=3-6 mice per group. […] Bars represent mean+S.E.M. n=3-6 mice per group. […] Bars represent mean+S.E.M. #p<0.01 vs MPTP. One-way, ANOVA, n=6 mice per group.
(§3) Points represent mean±S.E.M. Each point is the average of 3-4 animals. […] Bars represent mean+S.E.M. n=6-8 mice per group. […] Bars represent mean+S.E.M. #p<0.01 vs MPTP. One-way, ANOVA, n=6 mice per group.
(§4) Points represent mean+S.E.M. Each point is the average of 4 animals. […] Bars represent mean+S.E.M. n=6 mice per group. […] Bars represent mean+S.E.M. #p<0.01 vs MPTP. One-way, ANOVA, n=6 mice per group.
Points represent mean+S.E.M. Each point is the average of 4 animals.

[2] = Brain concentration in C57BL/6 mice after a single dose (15 mg/kg) by the i.p. or p.o. route; type: in vivo; conditions: for concentration in the brain after i.p. administration / concentration in the brain after p.o. administration / concentration in the brain, stable for 24 hr after i.p. administration / concentration in the brain for 24 hr after p.o. administration: C57BL/6 mice; for concentration in the brain after i.p. administration / concentration in the brain, stable for 24 hr after i.p. administration: single dose 15 mg/kg i.p.; for concentration in the brain after i.p. administration / concentration in the brain after p.o. administration: result in words; for concentration in the brain after p.o. administration / concentration in the brain for 24 hr after p.o. administration: single dose 15 mg/kg p.o.; for penetration of the BBB: 15 mg/kg, i.p. (AEOL11216), i.p. and p.o. (AEOL11203, AEOL1114)
Source text: as §1, §2, §3, §4

[3] = Solubility of the compound for dosing; type: physicochemical; conditions: result in words
[4] = tested on: MPTP metabolism; assay: Striatal MPP+ levels 3 h after MPTP (effects on MPTP metabolism); type: in vivo, mice; conditions: 15 mg/kg i.p. 1 h before MPTP (15 mg/kg s.c.)
Source text: Bars represent mean+S.E.M. n=4-6 mice per group.

[5] = tested on: MPTP mouse model; assay: Dopamine levels in the striata 7 days after injection of MPTP; type: in vivo, C57BL/6 mice; conditions: for protection against MPTP-induced striatal dopamine depletion: 1 hr prior to MPTP and daily thereafter, MPTP 15 mg/kg x3 s.c., 7 days
Source text: as §2, §3, §4

[6] = tested on: MPTP mouse model; assay: Stereological count of TH+ neurons in the substantia nigra pars compacta 7 days after MPTP; type: in vivo, C57BL/6 mice; conditions: MPTP 15 mg/kg x3 s.c.
Description: as §2
Assessment of tyrosine hydroxylase (TH) neurons: Free-floating […] mesencephalic serial sections will be processed with antibodies against TH for immunohistochemistry (Vector Laboratories) and counterstained with cresyl violet. Total numbers of TH and cresyl violet-stained neurons in SNpc is counted stereologically with STEREO INVESTIGATOR software.
Stereological analysis and TH immunohistochemistry: The 40-μm sections including the whole SN pars compacta (SNpc) from bregma −2.60 to −3.80 mm is immunostained with a rabbit antibody to TH (Chemicon, Temecula, Calif.) using the ABC method (ABC Elite Kit, Vector Laboratories, Burlingame, Calif.). The number of TH-positive neurons is quantified using stereo investigator software (MicroBrightfield, Williston, Vt.) by a previously described method (West, Trends in Neurosciences 22:51-61, 1999; Liang et al., J Neurosci 27:4326-4333, 2007).
Bars represent mean+S.E.M. n=6.

[7] = tested on: MPTP mouse model; assay: GSH, GSSG, GSH/GSSG and 3NT/Tyr ratios in ventral midbrain/SN 24 hours after MPTP; type: in vivo, C57/B6 mice; conditions: for protection against MPTP-induced alteration of 3-NT/tyrosine ratio / protection against MPTP-induced alteration of GSH/GSSG: 24 hours after MPTP
Source text: as §2, §3, §4

[8] = tested on: mice; assay: Open field test after 7 days of dosing; conditions: 15 mg/kg i.p. daily for 7 days; 3-4 h after last injection
Description: (§5) FIG. 15. The histograms of FIGS. 15A-15C appear in the order (left to right): control; MnCl2; AEOL 11114; AEOL 11207; AEOL 11203. Behavioral testing after dosing mice with AEOL11207, AEOL11114B or AEOL11203 (MnCl2 positive control). Mice (6 per group) were divided 5 groups treated with AEOL11207, AEOL11203, AEOL11114B, MnCl2 (all compound dissolved in 5% DMSO) or 5% DMSO alone by 15 mg/kg i.p. daily for a period of 7 days. At the end of treatment, mice were performed the behavioral tests by open field and accelerating rotorod test in 3-4 h after last injection. The total moving distance (FIG. 15A), moving velocity (FIG. 15B) in 5 minutes measured by open field test and the latency (seconds) from acceleration to fall from the rod (FIG. 15C) in the mice 7 days after injection of vehicle, MnCl2, AEOL11114, AEOL11207 and AEOL11203 i.p. (15 mg/kg daily). Bars represent mean+S.E.M. One-way, ANOVA, n=6-8 mice per group.
Open field test: The test is performed in mice treated with AEOL compounds or vehicle. The assessment is conducted over 2-4 days in a square arena mounted within specially designed sound-proof plexiglass shells. Each day a mouse is placed in the center of the open field arena and allowed to freely move about for 20-60 minutes while being tracked by an automated tracking system. […]

[9] = tested on: mice; assay: Accelerating rotarod test after 7 days of dosing; conditions: 15 mg/kg i.p. daily for 7 days; 3-4 h after last injection
Description: as §5
Motor behavior assessment by accelerating rotarod test follows the protocol of Hamm et al. (Ferret et al., Hepatology 33:1173-1180, 2001). Rotarod test is performed by using an automated rotarod (Ugo Basile, Comerio, Italy) after AEOLs or vehicle injections. Animals are tested two consecutive daily trials (1 hour apart) with an accelerating mode (15, 20, 25, 30, 35 and 40 rpm) in 240 seconds for total 5 days. The average latency to fall from the rod will be recorded. […]

plasma concentration after i.p. administration ([1]; result in words)	concentration in the brain after i.p. administration [2]	concentration in the brain after p.o. administration [2]	solubility [3]	penetration of the BBB [2]	concentration in the brain, stable for 24 hr after i.p. administration [2]	Compound	bioavailability / pharmacokinetic properties, overall assessment [1]	effect on striatal MPP+ levels [4]	protection against MPTP-induced striatal dopamine depletion ([5]; 15 mg/kg i.p.)	protection against MPTP-induced alteration of 3-NT/tyrosine ratio ([7]; 15 mg/kg x3 daily i.p.)	protection against MPTP-induced alteration of GSH/GSSG ([7]; 15 mg/kg x3 daily i.p.)	also measured
moderate levels	not reliably detectable					CCCOC(=O)C1=C2C=CC(=N2)C(C(=O)OCCC)=c2ccc3[n]2[Mn][n]2c1ccc2C(C(=O)OCCC)=C1C=CC(=N1)C=3C(=O)OCCC [AEOL11215]	poor bioavailability; also recorded: unfavorable pharmacokinetic or oral bioavailability					plasma concentration after p.o. administration ([1]; result in words): not reliably detected
relatively low	undetectable	undetectable	a major issue			FC(F)(F)C1=C2C=CC(=N2)C(C(F)(F)F)=c2ccc3[n]2[Mn+][n]2c1ccc2C(C(F)(F)F)=C1C=CC(=N1)C=3C(F)(F)F [AEOL11256]		none of the AEOL compounds tested altered the levels of MPP+				plasma concentration after p.o. administration ([1]; result in words): relatively low
			favorable solubility properties	penetrated the BBB	> 200 nM	COC(=O)c1ccc(C2=C3C=CC(=N3)C(C(F)(F)F)=c3ccc4[n]3[Mn+][n]3c2ccc3C(C(F)(F)F)=C2C=CC(=N2)C=4c2ccc(C(=O)OC)cc2)cc1 [AEOL1114]	good pharmacokinetic properties, brain penetration, oral bioavailability	none of the AEOL compounds tested altered the levels of MPP+	statistically significant protection	significantly protected	significantly protected	plasma concentration after i.p. administration [1]: ~20000 nM; concentration in the brain for 24 hr after p.o. administration [2]: > 200 nM; protection against MPTP-induced striatal dopamine depletion ([5]; 15 mg/kg p.o.): statistically significant protection; protection against MPTP-induced dopaminergic (TH+) neuronal loss in the substantia nigra pars compacta ([6]; 15 mg/kg i.p.): prevents MPTP-induced loss of TH+ dopamine neurons; protection against MPTP-induced dopaminergic (TH+) neuronal loss in the substantia nigra pars compacta ([6]; 15 mg/kg p.o.): prevents MPTP-induced loss of TH+ dopamine neurons; protection against MPTP-induced alteration of 3-NT/tyrosine ratio ([7]; 15 mg/kg x3 daily p.o.): significantly protected; protection against MPTP-induced alteration of GSH/GSSG ([7]; 15 mg/kg x3 daily p.o.): significantly protected; efficacy against MPTP-induced oxidative stress, overall assessment ([7]; summary in words): efficacy against MPTP-induced oxidative stress
relative high	good brain bioavailability	good brain bioavailability	good	penetrated the BBB	> 100 nM	COC(=O)C1=C2C=CC(=N2)C(C(=O)OC)=c2ccc3[n]2[Mn+][n]2c1ccc2C(C(=O)OC)=C1C=CC(=N1)C=3C(=O)OC [AEOL11203]		none of the AEOL compounds tested altered the levels of MPP+	statistically significant protection	significantly protected	significantly protected	plasma concentration after p.o. administration [1]: ~5000 nM; concentration in the brain for 24 hr after p.o. administration [2]: ~50 nM; efficacy in the MPTP mouse model, overall assessment ([5]; summary in words): promising efficacy
						[Cl][Mn][Cl] [MnCl2]						open field test (total moving distance, moving velocity) versus other groups [8]: no statistically significant differences; accelerating rotorod test (latency to fall) versus other groups [9]: no statistically significant differences
						COC(=O)c1c2nc(c(C(F)(F)F)c3ccc([n-]3)c(C(=O)OC)c3nc(c(C(F)(F)F)c4ccc1[n-]4)C=C3)C=C2.[Cl-].[Mn+3] [AEOL11207]		none of the AEOL compounds tested altered the levels of MPP+				
high plasma concentrations				penetrated the BBB	more than 100 nM	CCCOC(=O)C1=C2C=CC(=N2)C(C(F)(F)F)=c2ccc3[n]2[Mn][n]2c1ccc2C(C(F)(F)F)=C1C=CC(=N1)C=3C(=O)OCCC [AEOL11216]			did not significantly prevent	significantly protected	significantly protected	protection against MPTP-induced dopaminergic (TH+) neuronal loss in the substantia nigra pars compacta ([6]; 15 mg/kg i.p.): significantly protected

Compound	plasma concentration after i.p. administration ([1]; result in words)	concentration in the brain after i.p. administration [2]	concentration in the brain after p.o. administration [2]	solubility [3]	penetration of the BBB [2]	concentration in the brain, stable for 24 hr after i.p. administration [2]	bioavailability / pharmacokinetic properties, overall assessment [1]	effect on striatal MPP+ levels [4]	protection against MPTP-induced striatal dopamine depletion ([5]; 15 mg/kg i.p.)	protection against MPTP-induced alteration of 3-NT/tyrosine ratio ([7]; 15 mg/kg x3 daily i.p.)	protection against MPTP-induced alteration of GSH/GSSG ([7]; 15 mg/kg x3 daily i.p.)	also measured
COC(=O)c1ccc(C2=C3C=CC(=N3)C(C=O)=c3ccc4[n]3[Mn+][n]3c(ccc32)C(C=O)=C2C=CC(=N2)C=4c2ccc(C(=O)OC)cc2)cc1 [AEOL11209]	low but achievable	variable and relatively low	variable and relatively low	a major issue; also recorded: solubility issues			unfavorable pharmacokinetic or oral bioavailability; also recorded: poor bioavailability					
